Key:
CSF1R (human) = target: T1, CSF1R (human) (Homo sapiens, UniProt P07333); test: Competition binding assay, CSF1R (human) Kd
T1 construct: made in house; host or cells: T7 phage display or HEK-293 cells (alternatives, not resolved per kinase)
Procedure: The liganded beads were blocked with excess biotin and washed with blocking buffer (SeaBlock (Pierce), 1% BSA, 0.05% Tween 20, 1 mM DTT) to remove unbound ligand and to reduce non-specific binding. […] Test compounds were prepared as 100× stocks in DMSO and diluted into the aqueous environment. Kds were determined using an eleven point threefold serial dilutions. DMSO or control compounds were was added to control assays lacking a test compound. […] The kinase concentration in the eluates was measured by quantitative PCR.

[1] = target: kinase panel containing either 359 or 386 distinct kinases; test: Competition binding assay, selectivity score (S10) against a panel of kinases; conditions: compounds at 10 μM; fraction of kinases with percent of control less than 10
Procedure: Competition binding assays used herein were developed, validated and performed as described in Fabian et al., Nature Biotechnology 2005, 23, 329-336. Kinases were produced as fusions to T7 phage (See, Fabian et al. or WO04/015142) or alternatively, the kinases were expressed in HEK-293 cells and subsequently tagged with DNA for PCR detection (See, WO08/005,310). […] The liganded beads were blocked with excess biotin and washed with blocking buffer (SeaBlock (Pierce), 1% BSA, 0.05% Tween 20, 1 mM DTT) to remove unbound ligand and to reduce non-specific binding. […] Test compounds were prepared as 100× stocks in DMSO and diluted into the aqueous environment. Kds were determined using an eleven point threefold serial dilutions. DMSO or control compounds were was added to control assays lacking a test compound. Primary screen assays were performed in polypropylene 384-well plates in a final volume of 20-40 μL, while Kd determinations were performed in polystyrene 96-well plates in a final volume of […]. […] The kinase concentration in the eluates was measured by quantitative PCR.
A selectivity score (S10) is a quantitative measure of selectivity of a compound against a panel of kinases. An S10 was calculated for a compound by dividing the number of kinases found to have a percent of control (DMSO) less than 10 by the total number of distinct kinases tested (excluding mutant variants). Percent of control (POC) is calculated by subtracting the signal of the control compound
(POC=0) from the signal of the test compound and dividing the outcome by the signal of DMSO (POC=100) minus the signal of the control compound. For the compounds disclosed herein, S10 scores were obtained by testing the compounds at 10 μM concentration in a kinase panel containing either 359 or 386 distinct kinases.

M-NFS-60 cells = test: M-NFS-60 cell proliferation assay; assay type: cell-based, mouse; design: CSF1R Cell Proliferation (M-NFS-60) IC50 (nM): scale not given here; conditions: 72 hours incubation, Alamar Blue, M-CSF-dependent cells; for IC50: Mus musculus, read-out: CSF1R Cell Proliferation (M-NFS-60) IC50
Procedure: In certain embodiments, the compounds disclosed herein are tested in an M-NFS-60 cell proliferation assay to determine their cellular potency against CSF-1R. M-NFS-60s are mouse monocytic cells that depend on the binding of the ligand M-CSF to its receptor, CSF-1R, to proliferate Inhibition of CSF-1R kinase activity will cause reduced growth and/or cell death. This assay assesses the potency of compounds as CSF-1R inhibitors by measuring the reduction of Alamar Blue reagent by viable cells. An exemplary assay is described in the Examples section.
The compounds disclosed herein were tested in an M-NFS-60 cell proliferation assay to determine their cellular potency against CSF1R. M-NFS-60s are mouse monocytic cells that depend on the binding of the ligand M-CSF to its receptor, CSF1R, to proliferate Inhibition of CSF1R kinase activity will cause reduced growth and/or cell death. This assay assesses the potency of compounds as CSF1R inhibitors by measuring the reduction of Alamar Blue reagent by viable cells.
On day one of the experiment, M-NFS-60 cells were maintained in RPMI complete medium (Omega Scientific) plus 10% FBS supplemented with 20 ng/mL of M-CSF (R&D Systems). 96-well TC-treated, flat bottom plates were seeded at 10,000 cell/well at a volume of 100 μL per well. The cells were cultured overnight at 37° C. under 5% CO2.
On day two, compounds were added to the cells at 9 different concentrations, with half-log intervals alongside a control reference compound serving as a positive control. Final DMSO concentration was kept at 0.5% for a final volume of 200 μL. The compounds were allowed to incubate with the cells for 72 hours at 37° C. under 5% CO2.
On day five of the experiment, 40 μl of Alamar Blue reagent was added to each well and allowed to incubate for 3 hours. Alamar Blue fluorescence was read using SoftMax Pro software at 560 nm (excitation) and 590 nm (emission). IC50s were generated as an average of duplicates and represents the concentration of test compound that achieves 50% inhibition of cellular proliferation compared to control.

T1 sequence (P07333 20-972): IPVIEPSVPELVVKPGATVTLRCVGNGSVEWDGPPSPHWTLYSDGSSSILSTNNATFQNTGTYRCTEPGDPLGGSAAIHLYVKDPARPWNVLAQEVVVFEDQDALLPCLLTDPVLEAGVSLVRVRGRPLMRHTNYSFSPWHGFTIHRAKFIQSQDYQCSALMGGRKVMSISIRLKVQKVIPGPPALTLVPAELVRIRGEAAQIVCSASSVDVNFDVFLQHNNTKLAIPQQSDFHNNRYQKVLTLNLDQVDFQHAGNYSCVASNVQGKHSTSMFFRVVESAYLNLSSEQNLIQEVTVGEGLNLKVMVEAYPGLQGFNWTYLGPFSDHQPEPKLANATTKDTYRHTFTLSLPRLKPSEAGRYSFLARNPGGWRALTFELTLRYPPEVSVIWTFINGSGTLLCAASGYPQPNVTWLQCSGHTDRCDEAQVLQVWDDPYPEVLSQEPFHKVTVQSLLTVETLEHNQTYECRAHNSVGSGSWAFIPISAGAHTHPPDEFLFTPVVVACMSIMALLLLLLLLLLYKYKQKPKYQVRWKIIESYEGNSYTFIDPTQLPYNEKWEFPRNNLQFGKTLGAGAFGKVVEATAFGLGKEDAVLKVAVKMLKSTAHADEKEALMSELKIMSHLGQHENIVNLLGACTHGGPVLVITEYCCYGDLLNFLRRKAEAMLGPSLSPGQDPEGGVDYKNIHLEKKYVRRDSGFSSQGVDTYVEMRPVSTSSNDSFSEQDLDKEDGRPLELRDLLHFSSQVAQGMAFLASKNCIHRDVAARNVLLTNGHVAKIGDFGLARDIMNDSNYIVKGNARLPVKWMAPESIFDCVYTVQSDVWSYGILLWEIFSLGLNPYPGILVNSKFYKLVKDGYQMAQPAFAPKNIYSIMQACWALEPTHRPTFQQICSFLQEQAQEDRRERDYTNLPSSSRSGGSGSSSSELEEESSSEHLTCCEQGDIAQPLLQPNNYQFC

Row | Structure (SMILES) | Kd (CSF1R (human)) | Kinase Specificity (S10) [1] | IC50 (M-NFS-60 cells) | CSF1R Cell Proliferation (M-NFS-60) IC50 (nM) (M-NFS-60 cells)
1 | CC(C)N1CCC(Oc2ccc(C(=O)Nc3ccc(NC(=O)Nc4cc(C(C)(C)C(F)(F)F)on4)cc3)nc2)CC1 | < 3 nM | C (C > 0.05) | ≤ 100 nM | 
2 | CCN1CCC(Oc2ccc(C(=O)Nc3ccc(NC(=O)Nc4cc(C(C)(C)F)no4)cc3)nc2)CC1 | < 3 nM | A (A ≦ 0.03) |  | A/B
3 | CN1C(C)(C)CC(Oc2ccc(C(=O)Nc3ccc(NC(=O)Nc4cc(C(C)(C)C)on4)cc3)nc2)CC1(C)C |  | C (C > 0.05) |  | 
4 | CCN1CCC(c2ccc(C(=O)Nc3ccc(NC(=O)Nc4cc(C(C)(C)C)on4)cc3)nc2)CC1 |  | B (0.03 < B ≦ 0.05) |  | 
5 | CN1C(C)(C)CC(Oc2ccc(C(=O)Nc3ccc(NC(=O)Nc4cc(C(C)(C)C)on4)cc3)nn2)CC1(C)C | < 3 nM | C (C > 0.05) | 250 to 1000 nM | 
6 | CC(C)(C)c1cc(NC(=O)Nc2ccc(NC(=O)c3cc(OC4CCNCC4)ccn3)cc2)no1 |  | B (0.03 < B ≦ 0.05) |  | 
7 | CCN1C(C)(C)CC(Oc2ccc(C(=O)Nc3ccc(NC(=O)Nc4cc(C(C)(C)C)on4)cc3)nc2)CC1(C)C | < 3 nM | A (A ≦ 0.03) | ≤ 100 nM | 
8 | CCN1CC(Oc2ccc(C(=O)Nc3ccc(NC(=O)Nc4cc(C(C)(C)C)on4)cc3)nc2)C1 | < 3 nM | B (0.03 < B ≦ 0.05) | 100 to 250 nM | 
9 | CC(C)(C)c1cc(NC(=O)Nc2ccc(NC(=O)c3ccc(OC4CN(C5COC5)C4)cn3)cc2)no1 | < 3 nM | C (C > 0.05) | ≤ 100 nM | 
10 | CN1C(C)(C)CC(Oc2ccc(C(=O)Nc3cccc(CNC(=O)Nc4cc(C(C)(C)C)on4)c3)nc2)CC1(C)C | > 10 nM | C (C > 0.05) | > 1000 nM | 
11 | CC(C)N1CCC(Oc2ccc(C(=O)Nc3ccc(NC(=O)Nc4cc(C(C)(C)C)on4)cc3)nc2)C1 (stereo not shown) | < 3 nM | B (0.03 < B ≦ 0.05) | ≤ 100 nM | 
12 | CCN1CC[C@@H](COc2ccc(C(=O)Nc3ccc(NC(=O)Nc4cc(C(C)(C)C)on4)cc3)nc2)C1 | > 10 nM | C (C > 0.05) | ≤ 100 nM | 
13 | CCN1CCC(Oc2ccc(C(=O)Nc3ccc(NC(=O)Nc4cc(C(C)(C)C)on4)cc3)nc2)CC1 |  | C (C > 0.05) |  | 
14 | CC(C)(C)c1cc(NC(=O)Nc2ccc(NC(=O)c3ccc(OC4CCN(C5CC5)CC4)cn3)cc2)no1 |  | A (A ≦ 0.03) |  | 
15 | CC(C)N1CC[C@@H](COc2ccc(C(=O)Nc3ccc(NC(=O)Nc4cc(C(C)(C)C)on4)cc3)nc2)C1 | < 3 nM | C (C > 0.05) | ≤ 100 nM | 
16 | CN1C(C)(C)CC(Oc2ccc(C(=O)Nc3ccc(NC(=O)Nc4cc(C(C)(C)C(F)(F)F)on4)cc3)nc2)CC1(C)C | 3 to 10 nM | B (0.03 < B ≦ 0.05) | ≤ 100 nM | 
17 | CC(C)N1CC(Oc2ccc(C(=O)Nc3ccc(NC(=O)Nc4cc(C(C)(C)C)on4)cc3)nc2)C1 | < 3 nM | B (0.03 < B ≦ 0.05) | ≤ 100 nM | 

Row | Structure (SMILES) | Kd (CSF1R (human)) | Kinase Specificity (S10) [1] | IC50 (M-NFS-60 cells) | CSF1R Cell Proliferation (M-NFS-60) IC50 (nM) (M-NFS-60 cells)
18 | CN1C(C)(C)CC(Oc2ccc(C(=O)Nc3ccc(NC(=O)Nc4cc(C(C)(C)C)no4)cc3)nc2)CC1(C)C | 3 to 10 nM | B (0.03 < B ≦ 0.05) | ≤ 100 nM | 
19 | Cc1cc(NC(=O)c2ccc(OC3CC(C)(C)N(C)C(C)(C)C3)cn2)ccc1NC(=O)Nc1cc(C(C)(C)C)on1 | < 3 nM | B (0.03 < B ≦ 0.05) | 100 to 250 nM | 
20 | CN1C(C)(C)CC(Oc2cnc(C(=O)Nc3ccc(NC(=O)Nc4cc(C(C)(C)C)on4)cc3)cn2)CC1(C)C | 3 to 10 nM | B (0.03 < B ≦ 0.05) | 100 to 250 nM | 
21 | CN1C(C)(C)CC(=O)C(c2ccc(C(=O)Nc3ccc(NC(=O)Nc4cc(C(C)(C)C)on4)cc3)nc2)C1(C)C (stereo not shown) | < 3 nM | A (A ≦ 0.03) | 100 to 250 nM | 
22 | CCN1CCC(Cc2ccc(C(=O)Nc3ccc(NC(=O)Nc4cc(C(C)(C)C)on4)cc3)nc2)CC1 |  | B (0.03 < B ≦ 0.05) |  | 
23 | CC1(C)CC(Oc2ccc(C(=O)Nc3ccc(NC(=O)Nc4cc(C(C)(C)C)on4)cc3)nc2)CC(C)(C)N1 |  | C (C > 0.05) |  | 
24 | CN1C(COc2ccc(C(=O)Nc3ccc(NC(=O)Nc4cc(C(C)(C)C)on4)cc3)nc2)CCC1(C)C (stereo not shown) | 3 to 10 nM | B (0.03 < B ≦ 0.05) | ≤ 100 nM | 
25 | CC(C)(C)c1cc(NC(=O)Nc2ccc(NC(=O)c3ccc(OC4CCNCC4)cn3)cc2)no1 |  | C (C > 0.05) |  | 
26 | CCN1CCC(Oc2ccc(C(=O)Nc3ccc(NC(=O)Nc4cc(C(C)(C)C)on4)cc3)nc2)C1 (stereo not shown) | < 3 nM | B (0.03 < B ≦ 0.05) | ≤ 100 nM | 
27 | CC(C)(C)c1cc(NC(=O)Nc2ccc(NC(=O)c3ccc(OC4CCN(C(C)(C)C)CC4)cn3)cc2)no1 |  | B (0.03 < B ≦ 0.05) |  | 
28 | CN1C(C)(C)CC(C)(Oc2ccc(C(=O)Nc3ccc(NC(=O)Nc4cc(C(C)(C)C)on4)cc3)nc2)CC1(C)C | < 3 nM | C (C > 0.05) | ≤ 100 nM | 
29 | CC(C)(C)c1cc(NC(=O)Nc2ccc(NC(=O)c3ccc(OC4CCN(CCS(C)(=O)=O)C4)cn3)cc2)no1 (stereo not shown) | < 3 nM | C (C > 0.05) | ≤ 100 nM | 
30 | CC(C)N1CCC(Oc2ccc(C(=O)Nc3ccc(NC(=O)Nc4cc(C(C)(C)C)on4)cc3)nc2)CC1 |  | B (0.03 < B ≦ 0.05) |  | 
31 | CN1CCN(Cc2ccc(C(=O)Nc3ccc(NC(=O)Nc4cc(C(C)(C)C)on4)cc3)nc2)CC1 |  | A (A ≦ 0.03) |  | 
32 | CCN1CCC(Oc2ccnc(C(=O)Nc3ccc(NC(=O)Nc4cc(C(C)(C)C)on4)cc3)c2)CC1 |  | B (0.03 < B ≦ 0.05) |  | 
33 | CC(C)(C)c1cc(NC(=O)Nc2ccc(NC(=O)c3ccc(OC4CCN(CC(F)(F)F)CC4)cn3)cc2)no1 |  | A (A ≦ 0.03) |  | 

Reference: patent publication US9296722B2, “Azolyl urea compounds and methods of use thereof” (Ambit Biosciences Corporation, priority 2010, dated 2016)
